In patent US7135457B1, “Random peptides that bind to gastro-intestinal tract (GIT) transport receptors and related methods” (Cytogen Corporation, priority 1997, dated 2006):
Peptide text beside a SMILES is read from it. * marks the point of attachment. Dansyl = CN(C)c1cccc2c(S(=O)(=O)*)cccc12

Tests used:
[1] = for presence in the systemic circulation (in words): text summary of HPT1 and hPEPT1 pools; for transport from the GIT closed loop into the portal circulation (in words): text summary of hSI, D2H, HPT1, hPEPT1 pools; for presence in the intestine samples or fractions (in words): text summary of the four pools
Description: In particular, phages selected in vitro to each receptor or binding site located in the GIT were amplified in E. coli, PEG-precipitated, resuspended in TBS and the titer of each phage sample was determined by plaquing in E. coli as described above. […] Using the in situ loop model described above, 0.5 ml of preselected phage library solution was injected into the tied-off portion of the duodenum/jejunum. Blood was collected into heparinized tubes from the portal vein at 0, 15, 30, 45 and 60 minutes. A blood sample was taken from the systemic circulation at the end of the experiment. Similarly, the portion of the duodenum/jejunum used for phage injection was taken at the end of the experiment.
Thirty microliters of the collected portal blood (neat and 10^−2, 10^−4, 10^−6 dilutions) was added to 30 μl E. coli K91Kan cells (overnight culture) and incubated at 37° C. for 10 min. Subsequently, 3 ml of top agarose was added and the samples were plated for plaques. One hundred microliters of the collected portal blood was added to 100 μl of E. coli K91Kan. Five milliliters of LB medium was then added and the samples were incubated at 37° C. overnight in a rotating microbial incubator. The E. coli was removed by centrifugation and the amplified phage supernatant samples were either titered directly or were PEG-precipitated, resuspended in TBS and titered. Following titration of the amplified phage, samples containing phage from each set of animals were combined, adjusting the titer of each sample to the same titer, and were plated for plaques on LB agar plates (22 cm^2 square plates). Either 12,000 or 24,000 phage were plated for plaques.
Thirty microliters of the collected systemic blood (neat and 10^−2, 10^−4, 10^−6 dilutions) was added to E. coli K91Kan cells, incubated at 37° C. for 10 min. Three ml of top agarose was then added and the samples were plated for plaques. One hundred microliters of the collected systemic blood was added to 100 μl of E. coli K91Kan, incubated at 37° C. for 10 min. Five milliliters of LB medium was then added and the samples were incubated at 37° C. overnight in a rotating microbial incubator. The E. coli was removed by centrifugation and the amplified phage supernatant samples were either titered directly or were PEG-precipitated, resuspended in TBS and titered. Following titration of the amplified phage, samples containing phage from each set of animals were combined, adjusting the titer of each sample to the same titer, and were plated for plaques on LB agar plates (22 cm^2 square plates). Either 12,000 or 24,000 phage were plated for plaques. The intestinal tissue portion used in each closed loop was excised. […] Alternatively, the tissue (in PBS supplemented with protease inhibitors) was homogenized in an Ultra Thorex homogenizer, washed 3 times in PBS containing protease inhibitors and resuspended in PBS containing protease inhibitors (Int-G samples). In each case, serial dilutions (neat and 10^−2, 10^−4, 10^−6 dilutions) of the tissue homogenate was titered in E. coli.
The phage amplified from the portal blood, systemic blood and intestinal tissue was plated for plaques. […] The filters were air-dried, and the DNA was cross-linked to the filter (UV crosslinking: 2 min, high setting). The filters were incubated in pre-hybridization buffer (6×SSC, 5×Denhardt's solution, 0.1% SDS, 20 μg/ml yeast tRNA) at 40° C.-45° C. for at least 60 min.
Synthetic oligonucleotides, (22-mers), complimentary to regions coding for the receptor or binding sites used to create the preselected phage library, were synthesized (see Table 14 below).
The oligonucleotides (5 pmol) were 5′ end labelled with ^32P-ATP and T4 polynucleotide kinase and approximately 2.5 pmol of labelled oligonucleotide was used in hybridization studies. […] The filters were air-dried and exposed for autoradiography for 15 hours, 24 hours or 72 hours.
Hybridization data for pools from each receptor group of rats was compiled.

[2] = Drug potency, peptide loading and size of coacervated particles; format: physicochemical; conditions: formulation 1 particles (coacervation), blend; for Insulin (insulin potency): coated with the named peptide; for Peptide (level of peptide coated onto the particles): measured by fluorescence
BSA = BSA (Bos taurus, UniProt P02769); test: Phage ELISA on BSA (background control protein); format: binding
BSA, sequence (P02769 25-607): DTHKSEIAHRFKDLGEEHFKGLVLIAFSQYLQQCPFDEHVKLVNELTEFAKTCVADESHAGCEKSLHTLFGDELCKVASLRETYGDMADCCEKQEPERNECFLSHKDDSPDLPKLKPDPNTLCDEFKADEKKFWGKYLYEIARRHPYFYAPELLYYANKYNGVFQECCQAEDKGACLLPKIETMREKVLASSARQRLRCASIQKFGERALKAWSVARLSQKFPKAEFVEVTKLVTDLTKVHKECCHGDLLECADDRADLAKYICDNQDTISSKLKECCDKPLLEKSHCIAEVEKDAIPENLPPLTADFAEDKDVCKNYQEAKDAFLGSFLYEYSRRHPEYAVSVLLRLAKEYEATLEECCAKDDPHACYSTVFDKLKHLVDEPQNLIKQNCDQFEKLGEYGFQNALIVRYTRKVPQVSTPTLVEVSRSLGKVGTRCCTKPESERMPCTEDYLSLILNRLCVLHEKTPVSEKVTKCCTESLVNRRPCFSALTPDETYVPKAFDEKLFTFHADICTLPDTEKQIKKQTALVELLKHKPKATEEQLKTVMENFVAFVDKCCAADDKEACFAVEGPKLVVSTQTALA
Description: 96 well plates were coated overnight with GIT receptor, BSA and, optionally, IDE (insulin degrading enzyme, an irrelevant His-fusion protein) or hTF. The plates were blocked for one hour with 0.5% BSA-PBS. After clarification, the amplified phage were diluted 1:100 in 1% BSA plus 0.05% Tween 20 in PBS and added to the plates. Following incubation of the plates on a rotator for 1 to 2 hours, the plates were washed 5 times with 1% BSA plus 0.05% Tween 20 in PBS. Dilute anti-M13-HRP conjugate (anti-M13 antibody linked to horse radish peroxidase (HRP)) was added to all the wells and the plate was incubated for one hour on a rotator. After the plates were washed 5 times, as described above, TMB substrate was added to the wells. The plates were read at 650 nm absorbance.

[3] = test system: fixed Caco-2 or C2BBe1 cells; test: ELISA of GST fusion proteins on fixed Caco-2 or C2BBe1 cells; format: binding
Description: Fixed Caco-2, C2BBe1, and A431 cell plates were prepared by growing cells on tissue culture treated microtiter plates. When cells were confluent, plates were fixed with 10% formaldehyde, washed twice with PBS and stored with 0.5% BSA-PBS at −20° C. […] The standard ELISA procedure was followed at this point.
The standard ELISA procedure was modified as follows. GST proteins were diluted to an appropriate concentration in PBS containing 1% BSA and 0.05% Tween20 (1% BPT), titered and incubated one hour at room temperature. Following five washes an anti-GST monoclonal antibody was added (Sigma, St. Louis Clone GST-2 diluted 1:10,000 in 1% BPT) and incubated one hour. After five more washes goat anti-mouse IgG2b-HRP was added (Southern Biotechnology Associates Inc., Birmingham, Ala., diluted 1:4000 in 1% BPT) and incubated one hour. After five washes plates were developed with TMB peroxidase substrate (Kirkegard and Perry, Gaithersburg, Md.). All data is presented with background binding subtracted.

fixed Caco-2 cells = test: Effect of thrombin cleavage on binding of GST-peptide fusions to fixed Caco-2 cells
Description: Binding of intact and thrombin-cleaved GST-peptide fusions to fixed Caco-2 cells was compared.
Thirty micrograms of each GST-peptide was treated with bovine thrombin (1μ/ml; 0.4 NIH units; Sigma CN.T9681) for 18 h at room temperature in 20 mM Tris-HCl pH8.0, 150 mM NaCl, 2.5 mM CaCl2. Controls were similarly treated without addition of thrombin. Ten micrograms of each GST-peptide fusion was removed for PAGE analysis, and 10 μg of fusions were added in duplicate to the fixed Caco-2 cells before 5-fold serial dilutions (1% BPT diluent). The fusions were allowed to bind for 1 h at room temperature. Following 6 washes with 1% BPT, binding was assayed by ELISA.

[4] = test system: P100 membrane fractions derived from Caco-2 cells; test: Dansylated peptide ELISA on P100: PAX2 and HAX42 peptides relative binding; conditions: PAX2 peptides, ratio to ZElan021 (HAX42 = 1.00); for Binding value at 20 μg/ml: first 20 μg/ml column
[5] = test system: P100 membrane fractions derived from Caco-2 cells; test: as above; conditions: ratio to ZElan021 (HAX42 = 1.00)

Molecule	Insulin (insulin potency) [2] [mg/g]	Peptide (level of peptide coated onto the particles) [2] [µL/mg]	Binding value at 50 μg/ml (Southern Ab) [4]	Binding value at 20 μg/ml [4]	Binding value at 50 μg/ml ([4]; first 50 μg/ml column)	Binding value at 50 μg/ml ([4]; second 50 μg/ml column)	Binding value at 50 μg/ml (Jackson Ab) [5]	further results
SARDSGPAEDGSRAVRLNGVENANTRKSSRSNPRGRRHP [Peptide P31]	67.0	1.22	–	–	–	–	–	presence in the systemic circulation (in words) [1]: found in the systemic circulation; transport from the GIT closed loop into the portal circulation (in words) [1]: found in the portal circulation; presence in the intestine samples or fractions (in words) [1]: preferential binding; BSA (BSA; Table 4): 0.075 OD
RVGQCTDSDVRRPWARSCAHQGCGAGTRNSHGCITRPLRQASAH [SNi10]	59.5	1.75	–	–	–	–	–	BSA (BSA; Table 1, phage panned on hSI): 0.051 OD
gst-ENANTRKSSRSNPRGRRHP [GST-P31.103]	–	–	–	–	–	–	–	binding of truncated GST fusion compared with full-length, fixed Caco-2 cells ([3]; Caco-2): bound almost as well as full-length P31; effect of thrombin cleavage on detection of binding to fixed Caco-2 cells (fixed Caco-2 cells; Caco-2): significantly reduced
CC(C)C[C@H](NC(=O)[C@H](CCCNC(=N)N)NC(=O)[C@H](CCCNC(=N)N)NC(=O)[C@H](C)NC(=O)[C@H](Cc1c[nH]cn1)NC(=O)[C@H](CO)NC(=O)[C@H](CO)NC(=O)[C@@H](N)CCCCNS(=O)(=O)c1cccc2c(N(C)C)cccc12)C(=O)N[C@@H](CCCNC(=N)N)C(=O)N[C@H](C(=O)N[C@@H](CCCNC(=N)N)C(N)=O)[C@@H](C)O [ZElan076] (H-K(Dansyl)SSHARRLRTR-NH2)	–	–	0.42	0.08	1.00	0.41	0.60	–
gst-RVGQCTDSDVRRPWARSCAHQGCGAGTRNSHGCITRPLRQASAH [GST-SNi10]	–	–	–	–	–	–	–	binding to fixed Caco-2 or C2BBe1 cells relative to GST control ([3]; anti-GST ELISA): bound; effect of thrombin cleavage on detection of binding to fixed Caco-2 cells (fixed Caco-2 cells; thrombin 18 h at room temperature): significantly reduced
SQGSKQCMQYRTGRLTVGSEYGCGMNPARHATPAYPARLLPRYR [DCX11]	–	–	–	–	–	–	–	transport from the GIT closed loop into the portal circulation (in words) [1]: preferably transported; presence in the intestine samples or fractions (in words) [1]: found in the intestinal samples fractions; BSA (BSA; Table 3): 0.071 OD
CC(C)C[C@H](NC(=O)[C@H](CCCNC(=N)N)NC(=O)[C@H](CCCNC(=N)N)NC(=O)[C@H](CC(N)=O)NC(=O)[C@H](C)NC(=O)[C@H](CO)NC(=O)[C@H](CO)NC(=O)[C@@H](N)CCCCNS(=O)(=O)c1cccc2c(N(C)C)cccc12)C(=O)N[C@@H](CCCNC(=N)N)C(=O)N[C@H](C(=O)N[C@@H](CCCNC(=N)N)C(N)=O)[C@@H](C)O [ZElan075] (H-K(Dansyl)SSANRRLRTR-NH2)	–	–	0.32	0.13	0.52	0.38	0.47	–
SDHALGTNLRSDNAKEPGDYNCCGNGNSTGRKVFNRRRPSAIPT [HAX42]	55.9	2.93	–	–	–	–	–	presence in the systemic circulation (in words) [1]: found in the portal and systemic circulation; transport from the GIT closed loop into the portal circulation (in words) [1]: found in the portal and systemic circulation; BSA (BSA; Table 5): 0.071 OD
C[C@H](NC(=O)[C@H](CCCNC(=N)N)NC(=O)[C@H](CCCNC(=N)N)NC(=O)[C@H](CC(N)=O)NC(=O)[C@H](Cc1c[nH]cn1)NC(=O)[C@H](CO)NC(=O)[C@H](CO)NC(=O)[C@@H](N)CCCCNS(=O)(=O)c1cccc2c(N(C)C)cccc12)C(=O)N[C@@H](CCCNC(=N)N)C(=O)N[C@H](C(=O)N[C@@H](CCCNC(=N)N)C(N)=O)[C@@H](C)O [ZElan079] (H-K(Dansyl)SSHNRRARTR-NH2)	–	–	0.53	0.31	0.97	0.68	0.83	–
CC(C)C[C@H](NC(=O)[C@H](CCCNC(=N)N)NC(=O)[C@H](CCCNC(=N)N)NC(=O)[C@H](CC(N)=O)NC(=O)[C@H](Cc1c[nH]cn1)NC(=O)[C@H](CO)NC(=O)[C@H](CO)NC(=O)[C@@H](N)CCCCNS(=O)(=O)c1cccc2c(N(C)C)cccc12)C(=O)N[C@@H](C)C(=O)N[C@H](C(=O)N[C@@H](CCCNC(=N)N)C(N)=O)[C@@H](C)O [ZElan080] (H-K(Dansyl)SSHNRRLATR-NH2)	–	–	0.38	0.23	0.84	0.45	0.67	–
RYKHDIGCDAGVDKKSSSVRGGCGAHSSPPRAGRGPRGTMVSRL [DCX8]	59.1	1.87	–	–	–	–	–	BSA (BSA; Table 3): 0.063 OD
